Source: PubChem BioAssay (NCI)
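Tested at 5 concentrations; 48 h exposure; 96-well plates; endpoints linearly interpolated, else capped at highest concentration. TGI is the concentration that stops growth completely.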

Assays:
Test in all cases: inhibition of tumour cell growth, NCI panel, 48 h
KM12 colon = tested on: KM12 colon
HCC-2998 colon = tested on: HCC-2998 colon
MDA-MB-435 = tested on: MDA-MB-435
MCF7 breast = tested on: MCF7 breast
OVCAR-3 ovarian = tested on: OVCAR-3 ovarian

For CN(C)C(=O)OC(Cn1cncn1)(Cn1cncn1)c1ccc(Cl)cc1Cl, the TGI (KM12 colon) was greater than 100 µM, the TGI (HCC-2998 colon) was greater than 100 µM and the TGI (MDA-MB-435) was greater than 100 µM. The TGI (MCF7 breast) was greater than 100 µM and the TGI (OVCAR-3 ovarian) was greater than 100 µM.
In the case of COc1ccc(OC)c(NS(=O)(=O)c2ccc3nc(C)n(NS(=O)(=O)c4cc(OC)ccc4OC)c(=O)c3c2)c1, the TGI (KM12 colon) is reported as greater than 100 µM, the TGI (HCC-2998 colon) is reported as greater than 100 µM and the TGI (MDA-MB-435) is reported as greater than 100 µM. For the same molecule, the TGI (MCF7 breast) was greater than 100 µM and the TGI (OVCAR-3 ovarian) was greater than 100 µM.
Molecule COc1ccc(CN=C(N)N)c2ccccc12 has a TGI (KM12 colon) greater than 100 µM, a TGI (MCF7 breast) greater than 100 µM and a TGI (OVCAR-3 ovarian) greater than 100 µM.
Work on CC(=O)N=C1N(/C=C2\C(=O)Oc3ccccc3C2=O)C(=O)/C(=C/c2ccc(NC(C)=O)cc2)N1C yielded a TGI (KM12 colon) greater than 100 µM, a TGI (HCC-2998 colon) greater than 100 µM and a TGI (MDA-MB-435) greater than 100 µM. It also gave a TGI (MCF7 breast) greater than 100 µM and a TGI (OVCAR-3 ovarian) greater than 100 µM.
With O=[N+]([O-])c1cc2c(cc1/C=N/n1c(CO)nc3ccccc31)OCO2 the TGI (KM12 colon) was greater than 100 µM, the TGI (MDA-MB-435) was greater than 100 µM and the TGI (MCF7 breast) was greater than 100 µM. It also gave a TGI (OVCAR-3 ovarian) greater than 100 µM.
CCCCCCCCCCCCCCCC(=O)N(CCCCCCCCCCC(=O)O)CC(O)C(O)C(OC1OC(CO)C(O)C(O)C1O)C(O)CO (stereo not drawn) was tested, and the TGI (KM12 colon) was 34 µM, the TGI (HCC-2998 colon) was 49.5 µM and the TGI (MDA-MB-435) was greater than 100 µM. For the same molecule, the TGI (MCF7 breast) was greater than 100 µM and the TGI (OVCAR-3 ovarian) was greater than 100 µM.
With COc1ccc(C2C3COc4ccccc4C3=NN2c2ccccc2)cc1 (stereo not drawn) the TGI (KM12 colon) was greater than 100 µM, the TGI (MDA-MB-435) was greater than 100 µM and the TGI (MCF7 breast) was greater than 100 µM. For the same molecule, the TGI (OVCAR-3 ovarian) was greater than 100 µM.
C=C1C(=O)O[C@H]2[C@@H](O)[C@H](C)CCC[C@]3(C)O[C@H]3CC[C@@]3(C)O[C@@H]3C[C@@H]12 was tested, and the TGI (KM12 colon) was 15.3 µM, the TGI (HCC-2998 colon) was 10.9 µM and the TGI (MDA-MB-435) was 10 µM. The TGI (MCF7 breast) was 7.87 µM and the TGI (OVCAR-3 ovarian) was 10.6 µM.
For CCOC(=O)/C(C#N)=C/c1ccnc2ccccc12, the TGI (KM12 colon) was greater than 100 µM, the TGI (HCC-2998 colon) was greater than 100 µM and the TGI (MDA-MB-435) was greater than 100 µM. It also gave a TGI (OVCAR-3 ovarian) greater than 100 µM.
O=C(Cc1ccccc1)Nn1c(-c2ccccc2)nc2ccccc2c1=O gave a TGI (KM12 colon) greater than 100 µM, a TGI (HCC-2998 colon) greater than 100 µM and a TGI (MDA-MB-435) greater than 100 µM. The TGI (MCF7 breast) was greater than 100 µM and the TGI (OVCAR-3 ovarian) was greater than 100 µM.
Work on COc1ccc(C2SCC(=O)N2NC(=O)c2ccc(NC(C)=O)cc2)cc1 (stereo not drawn) yielded a TGI (KM12 colon) greater than 100 µM, a TGI (HCC-2998 colon) greater than 100 µM and a TGI (MDA-MB-435) greater than 100 µM. The TGI (MCF7 breast) was greater than 100 µM and the TGI (OVCAR-3 ovarian) was greater than 100 µM.
Cc1c2c(OCCN3CCCCC3)nn(C)c(=O)c2c(C)n1-c1ccccc1 showed a TGI (KM12 colon) greater than 100 µM, a TGI (HCC-2998 colon) of 65.3 µM and a TGI (MDA-MB-435) greater than 100 µM. It also gave a TGI (MCF7 breast) greater than 100 µM and a TGI (OVCAR-3 ovarian) greater than 100 µM.
In the case of C=C1C(=O)O[C@@H]2C[C@]3(C)CC[C@]4(C)[C@H](CC[C@@H]5[C@@]6(C)CCC(=O)C(C)(C)[C@@H]6CC[C@]54C)[C@H]3[C@H]12, the TGI (KM12 colon) is reported as 42.8 µM, the TGI (HCC-2998 colon) is reported as 33.7 µM and the TGI (MDA-MB-435) is reported as 25.4 µM. The TGI (MCF7 breast) was 21.4 µM and the TGI (OVCAR-3 ovarian) was 35.5 µM.
Work on FC1C2=C(SC1(F)F)C1CCC2C1 (stereo not drawn) yielded a TGI (KM12 colon) greater than 100 µM, a TGI (MDA-MB-435) greater than 100 µM and a TGI (MCF7 breast) greater than 100 µM. For the same molecule, the TGI (OVCAR-3 ovarian) was greater than 100 µM.
With O=C1OC(=O)c2cc(S(=O)(=O)c3ccc4c(c3)C(=O)OC4=O)ccc21 the TGI (KM12 colon) was greater than 100 µM, the TGI (HCC-2998 colon) was greater than 100 µM and the TGI (MDA-MB-435) was greater than 100 µM. For the same molecule, the TGI (MCF7 breast) was greater than 100 µM and the TGI (OVCAR-3 ovarian) was greater than 100 µM.
CN(C)CCCn1nc(N)c2nc3cc(Cl)ccc3nc21 showed a TGI (KM12 colon) greater than 100 µM, a TGI (HCC-2998 colon) greater than 100 µM and a TGI (MDA-MB-435) greater than 100 µM. It also gave a TGI (MCF7 breast) greater than 100 µM and a TGI (OVCAR-3 ovarian) greater than 100 µM.
For CCOC(=O)C(Cc1cccn1C(=O)OC(C)(C)C)[N+](=O)[O-] (stereo not drawn), the TGI (KM12 colon) was 55.5 µM, the TGI (HCC-2998 colon) was 42.4 µM and the TGI (MDA-MB-435) was 77.1 µM. It also gave a TGI (MCF7 breast) greater than 100 µM and a TGI (OVCAR-3 ovarian) of 98.2 µM.
Clc1ccc(C(SCc2ccccc2)SCc2ccccc2)cc1 showed a TGI (KM12 colon) greater than 10 µM, a TGI (HCC-2998 colon) greater than 10 µM and a TGI (MCF7 breast) greater than 10 µM. For the same molecule, the TGI (OVCAR-3 ovarian) was greater than 10 µM.
CCOC(=O)CC(=O)Nc1cccc2[nH]cnc12 was tested, and the TGI (KM12 colon) was greater than 100 µM, the TGI (MDA-MB-435) was greater than 100 µM and the TGI (MCF7 breast) was greater than 100 µM. It also gave a TGI (OVCAR-3 ovarian) greater than 100 µM.
Molecule O=S(=O)(/N=C(\NO)Nc1ccc(Cl)cc1)c1cccc2nsnc12 has a TGI (KM12 colon) greater than 100 µM, a TGI (MDA-MB-435) greater than 100 µM and a TGI (OVCAR-3 ovarian) of 70 µM.
In the case of COC(=O)c1cnc(Cl)cn1, the TGI (KM12 colon) is reported as greater than 100 µM, the TGI (MDA-MB-435) is reported as greater than 100 µM and the TGI (MCF7 breast) is reported as 95.5 µM.
Molecule Cc1cc(S(=O)(=O)Nc2nc(N)nc(N(C)C)n2)c(SCC(=O)O)cc1Cl has a TGI (KM12 colon) greater than 10 µM, a TGI (HCC-2998 colon) greater than 10 µM and a TGI (MCF7 breast) greater than 10 µM. It also gave a TGI (OVCAR-3 ovarian) greater than 10 µM.
COC(C)(C)C1(O)CCC(C)CC1=O (stereo not drawn) gave a TGI (KM12 colon) greater than 100 µM, a TGI (HCC-2998 colon) greater than 100 µM and a TGI (MDA-MB-435) greater than 100 µM. The TGI (OVCAR-3 ovarian) was greater than 100 µM.
Molecule C[N+]1(CCCl)CC[N+](C)(CCCl)CC1 (stereo not drawn) has a TGI (KM12 colon) greater than 100 µM, a TGI (MDA-MB-435) greater than 100 µM and a TGI (MCF7 breast) greater than 100 µM. For the same molecule, the TGI (OVCAR-3 ovarian) was greater than 100 µM.
Cc1csc(/N=C\c2c(O)c3ccccc3oc2=O)n1 was tested, and the TGI (KM12 colon) was greater than 100 µM, the TGI (MDA-MB-435) was greater than 100 µM and the TGI (MCF7 breast) was greater than 100 µM. The TGI (OVCAR-3 ovarian) was greater than 100 µM.
O=C(N/N=C1/C(=O)c2c3ccccc3cc3cccc1c23)c1ccccc1 was tested, and the TGI (KM12 colon) was greater than 31.6 µM, the TGI (MDA-MB-435) was greater than 86.7 µM and the TGI (MCF7 breast) was greater than 77.1 µM. For the same molecule, the TGI (OVCAR-3 ovarian) was greater than 100 µM.
For CCOC(=O)CNc1nc(=O)c2c(=O)oc(Cl)cc2o1, the TGI (KM12 colon) was 55.3 µM, the TGI (HCC-2998 colon) was 29 µM and the TGI (MDA-MB-435) was 35.4 µM. It also gave a TGI (OVCAR-3 ovarian) of 25.5 µM.
COc1cc2cc(C(=O)N3CC(CCl)c4c3cc(N)c3ccccc43)[nH]c2c(OC)c1OC (stereo not drawn) showed a TGI (KM12 colon) of 0.0207 µM, a TGI (HCC-2998 colon) of less than 0.01 µM and a TGI (OVCAR-3 ovarian) of less than 0.01 µM.
Clc1ccc(C2Nc3ccccc3C3=NCCN32)cc1 (stereo not drawn) showed a TGI (KM12 colon) of 40.2 µM, a TGI (MDA-MB-435) of 39.8 µM and a TGI (MCF7 breast) of 57.3 µM. It also gave a TGI (OVCAR-3 ovarian) greater than 100 µM.
Cc1ccc2nc(-c3ccc(N4C(=O)C(Cl)C4c4ccc(Cl)cc4)cc3)sc2c1 (stereo not drawn) showed a TGI (KM12 colon) greater than 100 µM, a TGI (MDA-MB-435) of 36.6 µM and a TGI (MCF7 breast) of 32.7 µM. It also gave a TGI (OVCAR-3 ovarian) of 40.1 µM.
